Test results published in article PMC6407917, “Identification of GSK3186899/DDD853651 as a Preclinical Development Candidate for the Treatment of Visceral Leishmaniasis” (Journal of Medicinal Chemistry, 2018).

Experiments:
Assay in all cases: biochemical
Parameters in all cases: species or system HEK293/K-562/placenta mixed human extract; Kinobeads chemoproteomic competition binding, quantified by TMT LC-MS/MS, dose response up to 20 uM
AZI2 = AZI2 (Homo sapiens, UniProt Q9H6S1)
EPHA1 = EPHA1 (Homo sapiens, UniProt P21709)
FGR = FGR (Homo sapiens, UniProt P09769)
IKBKB = IKBKB (Homo sapiens, UniProt O14920)
LYN = LYN (Homo sapiens, UniProt P07948)
MAP3K11 = MAP3K11 (Homo sapiens, UniProt Q16584)
MAPK8 = MAPK8 (Homo sapiens, UniProt P45983)
MAPKAPK3 = MAPKAPK3 (Homo sapiens, UniProt Q16644)
MERTK = MERTK (Homo sapiens, UniProt Q12866)
MET = MET (Homo sapiens, UniProt P08581)
PDXK = PDXK (Homo sapiens, UniProt O00764)
PIK3C3 = PIK3C3 (Homo sapiens, UniProt Q8NEB9)
PIK3R4 = PIK3R4 (Homo sapiens, UniProt Q99570)
PKMYT1 = PKMYT1 (Homo sapiens, UniProt Q99640)
PRKAA1 = PRKAA1 (Homo sapiens, UniProt Q13131)
PRKAA2 = PRKAA2 (Homo sapiens, UniProt P54646)
PRKD3 = PRKD3 (Homo sapiens, UniProt O94806)
RPS6KA4 = RPS6KA4 (Homo sapiens, UniProt O75676)
STK3 = STK3 (Homo sapiens, UniProt Q13188)
ULK1 = ULK1 (Homo sapiens, UniProt O75385)
YWHAZ = YWHAZ (Homo sapiens, UniProt P63104)

Measured: IC50

Sequence of RPS6KA4 (O75676 whole entry): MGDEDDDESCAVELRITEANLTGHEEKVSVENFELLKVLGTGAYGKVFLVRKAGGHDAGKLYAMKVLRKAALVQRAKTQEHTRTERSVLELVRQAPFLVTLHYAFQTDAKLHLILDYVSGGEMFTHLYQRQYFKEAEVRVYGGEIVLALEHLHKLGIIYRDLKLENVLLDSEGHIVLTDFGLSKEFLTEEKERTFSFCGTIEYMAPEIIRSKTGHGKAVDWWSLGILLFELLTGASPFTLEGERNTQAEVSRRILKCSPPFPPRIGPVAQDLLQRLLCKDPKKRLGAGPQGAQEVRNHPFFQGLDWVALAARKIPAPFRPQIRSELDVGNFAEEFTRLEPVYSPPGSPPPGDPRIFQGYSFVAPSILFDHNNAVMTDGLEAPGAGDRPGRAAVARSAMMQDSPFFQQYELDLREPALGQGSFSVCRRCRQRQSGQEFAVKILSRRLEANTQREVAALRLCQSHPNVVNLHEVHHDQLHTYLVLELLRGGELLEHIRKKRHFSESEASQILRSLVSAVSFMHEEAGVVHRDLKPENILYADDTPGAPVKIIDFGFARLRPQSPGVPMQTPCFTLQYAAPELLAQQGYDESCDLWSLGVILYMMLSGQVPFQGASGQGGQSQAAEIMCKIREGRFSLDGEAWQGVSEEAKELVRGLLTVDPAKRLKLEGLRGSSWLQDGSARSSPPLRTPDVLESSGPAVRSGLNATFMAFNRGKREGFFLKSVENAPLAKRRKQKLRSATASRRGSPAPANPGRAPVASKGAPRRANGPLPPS
Sequence of MAPKAPK3 (Q16644 whole entry): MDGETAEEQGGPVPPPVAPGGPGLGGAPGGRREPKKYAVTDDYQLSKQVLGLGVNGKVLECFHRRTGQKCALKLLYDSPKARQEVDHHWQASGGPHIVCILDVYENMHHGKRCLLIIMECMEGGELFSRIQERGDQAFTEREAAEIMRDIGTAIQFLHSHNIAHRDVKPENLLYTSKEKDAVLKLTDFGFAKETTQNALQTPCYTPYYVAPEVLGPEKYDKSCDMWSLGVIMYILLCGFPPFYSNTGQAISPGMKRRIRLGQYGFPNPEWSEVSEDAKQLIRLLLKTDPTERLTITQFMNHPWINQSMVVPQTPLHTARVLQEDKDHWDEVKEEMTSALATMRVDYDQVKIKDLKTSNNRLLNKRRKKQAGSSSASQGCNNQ
Sequence of PRKD3 (O94806 whole entry): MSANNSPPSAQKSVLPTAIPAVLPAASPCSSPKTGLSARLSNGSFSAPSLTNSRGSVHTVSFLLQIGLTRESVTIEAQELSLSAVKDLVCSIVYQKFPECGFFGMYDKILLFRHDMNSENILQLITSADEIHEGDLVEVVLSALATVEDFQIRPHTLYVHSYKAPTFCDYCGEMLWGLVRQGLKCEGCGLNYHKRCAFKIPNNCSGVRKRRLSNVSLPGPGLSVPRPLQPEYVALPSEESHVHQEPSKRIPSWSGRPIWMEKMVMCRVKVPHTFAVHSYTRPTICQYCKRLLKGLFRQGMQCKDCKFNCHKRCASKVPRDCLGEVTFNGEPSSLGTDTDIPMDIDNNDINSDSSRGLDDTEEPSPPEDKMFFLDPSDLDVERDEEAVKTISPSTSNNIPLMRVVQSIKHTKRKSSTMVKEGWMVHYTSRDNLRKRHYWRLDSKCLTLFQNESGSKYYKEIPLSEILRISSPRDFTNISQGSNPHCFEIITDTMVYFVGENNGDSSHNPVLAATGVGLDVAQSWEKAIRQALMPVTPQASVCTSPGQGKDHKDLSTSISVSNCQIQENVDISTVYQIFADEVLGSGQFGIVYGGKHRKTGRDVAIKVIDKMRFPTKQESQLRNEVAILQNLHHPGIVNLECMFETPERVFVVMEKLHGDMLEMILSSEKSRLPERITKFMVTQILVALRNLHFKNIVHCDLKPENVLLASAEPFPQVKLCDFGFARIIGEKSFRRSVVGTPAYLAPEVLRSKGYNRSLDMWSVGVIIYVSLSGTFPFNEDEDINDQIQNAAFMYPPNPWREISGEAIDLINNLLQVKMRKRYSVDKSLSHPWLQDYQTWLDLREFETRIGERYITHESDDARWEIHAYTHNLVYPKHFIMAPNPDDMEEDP
Sequence of PRKAA2 (P54646 whole entry): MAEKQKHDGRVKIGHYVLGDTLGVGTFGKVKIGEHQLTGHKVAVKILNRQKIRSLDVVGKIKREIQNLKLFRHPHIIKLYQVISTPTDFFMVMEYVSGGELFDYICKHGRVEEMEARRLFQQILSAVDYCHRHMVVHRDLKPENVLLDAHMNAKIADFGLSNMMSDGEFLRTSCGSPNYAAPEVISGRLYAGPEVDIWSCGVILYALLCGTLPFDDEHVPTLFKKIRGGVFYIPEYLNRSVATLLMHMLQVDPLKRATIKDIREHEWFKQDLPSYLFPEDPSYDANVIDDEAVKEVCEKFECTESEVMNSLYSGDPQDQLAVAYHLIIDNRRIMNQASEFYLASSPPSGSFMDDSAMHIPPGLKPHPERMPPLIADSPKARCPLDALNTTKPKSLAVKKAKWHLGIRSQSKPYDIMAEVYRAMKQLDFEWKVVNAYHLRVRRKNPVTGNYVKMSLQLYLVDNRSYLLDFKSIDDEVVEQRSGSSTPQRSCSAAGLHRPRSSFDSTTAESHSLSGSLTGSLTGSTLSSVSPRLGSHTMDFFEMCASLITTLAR
Sequence of PIK3C3 (Q8NEB9 whole entry): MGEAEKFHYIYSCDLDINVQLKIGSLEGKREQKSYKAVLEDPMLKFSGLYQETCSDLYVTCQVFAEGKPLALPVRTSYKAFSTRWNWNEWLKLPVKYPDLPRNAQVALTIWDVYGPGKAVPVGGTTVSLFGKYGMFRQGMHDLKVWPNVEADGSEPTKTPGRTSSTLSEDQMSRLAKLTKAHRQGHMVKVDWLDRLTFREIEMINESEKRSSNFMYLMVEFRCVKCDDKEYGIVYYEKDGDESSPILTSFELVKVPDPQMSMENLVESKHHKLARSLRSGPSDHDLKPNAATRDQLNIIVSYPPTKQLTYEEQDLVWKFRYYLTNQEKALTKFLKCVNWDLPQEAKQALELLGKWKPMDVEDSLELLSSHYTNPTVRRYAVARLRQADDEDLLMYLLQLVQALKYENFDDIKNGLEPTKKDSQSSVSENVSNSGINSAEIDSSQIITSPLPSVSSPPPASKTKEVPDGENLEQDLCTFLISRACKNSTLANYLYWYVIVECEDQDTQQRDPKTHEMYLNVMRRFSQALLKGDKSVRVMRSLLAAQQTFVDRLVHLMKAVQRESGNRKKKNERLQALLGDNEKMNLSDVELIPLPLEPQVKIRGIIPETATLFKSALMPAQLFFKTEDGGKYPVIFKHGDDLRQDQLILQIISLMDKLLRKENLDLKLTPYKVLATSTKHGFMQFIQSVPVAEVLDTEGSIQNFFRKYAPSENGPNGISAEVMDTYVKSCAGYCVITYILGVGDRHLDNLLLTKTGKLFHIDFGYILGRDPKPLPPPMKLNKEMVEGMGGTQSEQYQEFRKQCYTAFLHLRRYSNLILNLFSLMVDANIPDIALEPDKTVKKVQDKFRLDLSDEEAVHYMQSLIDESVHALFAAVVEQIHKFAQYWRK
Sequence of PIK3R4 (Q99570 whole entry): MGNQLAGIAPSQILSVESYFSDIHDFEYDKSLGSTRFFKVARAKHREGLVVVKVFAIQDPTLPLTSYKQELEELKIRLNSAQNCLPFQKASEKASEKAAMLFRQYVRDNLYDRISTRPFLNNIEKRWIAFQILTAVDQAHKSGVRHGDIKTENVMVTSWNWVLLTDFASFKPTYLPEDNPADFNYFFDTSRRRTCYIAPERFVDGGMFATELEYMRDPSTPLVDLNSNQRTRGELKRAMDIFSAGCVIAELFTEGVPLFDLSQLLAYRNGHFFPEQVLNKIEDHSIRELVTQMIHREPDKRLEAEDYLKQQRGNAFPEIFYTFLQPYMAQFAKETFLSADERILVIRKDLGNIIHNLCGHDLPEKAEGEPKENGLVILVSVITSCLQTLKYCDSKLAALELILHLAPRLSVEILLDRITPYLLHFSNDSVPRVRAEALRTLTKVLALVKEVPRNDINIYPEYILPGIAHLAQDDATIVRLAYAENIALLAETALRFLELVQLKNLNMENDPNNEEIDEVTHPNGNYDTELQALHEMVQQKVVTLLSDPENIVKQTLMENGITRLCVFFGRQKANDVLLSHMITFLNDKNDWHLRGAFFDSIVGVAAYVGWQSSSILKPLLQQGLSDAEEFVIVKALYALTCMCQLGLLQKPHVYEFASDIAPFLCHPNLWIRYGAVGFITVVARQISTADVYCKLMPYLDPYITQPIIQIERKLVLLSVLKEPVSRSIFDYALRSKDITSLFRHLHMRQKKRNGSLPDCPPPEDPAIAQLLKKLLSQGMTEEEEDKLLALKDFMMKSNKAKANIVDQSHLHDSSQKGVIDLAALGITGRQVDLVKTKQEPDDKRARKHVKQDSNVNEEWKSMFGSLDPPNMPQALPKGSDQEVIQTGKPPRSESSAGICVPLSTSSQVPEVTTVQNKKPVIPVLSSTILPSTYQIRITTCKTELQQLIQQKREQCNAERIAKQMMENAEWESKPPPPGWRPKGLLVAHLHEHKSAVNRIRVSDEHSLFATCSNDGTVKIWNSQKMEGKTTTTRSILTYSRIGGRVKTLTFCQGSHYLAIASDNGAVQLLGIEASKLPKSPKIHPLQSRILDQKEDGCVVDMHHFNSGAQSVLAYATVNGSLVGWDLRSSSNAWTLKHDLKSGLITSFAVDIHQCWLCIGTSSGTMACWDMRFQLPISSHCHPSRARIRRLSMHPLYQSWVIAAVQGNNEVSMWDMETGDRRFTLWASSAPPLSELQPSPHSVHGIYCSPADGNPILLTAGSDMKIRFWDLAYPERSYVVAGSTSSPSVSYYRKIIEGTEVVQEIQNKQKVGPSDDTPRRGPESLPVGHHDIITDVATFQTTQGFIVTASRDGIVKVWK

COc1nc(N[C@H]2CC[C@H](NS(=O)(=O)CC(C)C)CC2)nc2[nH]nc(N3CCOC[C@H]3C)c12 [compound 39, N-(trans-4-((4-Methoxy-3-((R)-3-methylmorpholino)-1H-pyrazolo[3,4-d]pyrimidin-6-yl)amino)cyclohexyl)-2-methylpropane-1-sulfonamide]
≥ 20 µM: all assays above
